Results as given in patent US10988474B2, “Compounds acting at multiple prostaglandin receptors giving a general anti-inflammatory response” (ALLERGAN, INC., priority 2011, dated 2021).

Experiments:
Type in all cases: cell-based
[1] = target: T1, human prostanoid DP1 receptor (Homo sapiens, UniProt Q13258); experiment: FLIPR Ca2+ signaling PG antagonist assay, DP1 stable cell line; settings: HEK-293 EBNA cells, human recombinant DP1 with chimeric Gqs; standard agonist BW 245C; read-out: DP (Kb, PG antagonist activity)
T1 construct: expressed in transfected cells
T1 sequence (Q13258 1-359): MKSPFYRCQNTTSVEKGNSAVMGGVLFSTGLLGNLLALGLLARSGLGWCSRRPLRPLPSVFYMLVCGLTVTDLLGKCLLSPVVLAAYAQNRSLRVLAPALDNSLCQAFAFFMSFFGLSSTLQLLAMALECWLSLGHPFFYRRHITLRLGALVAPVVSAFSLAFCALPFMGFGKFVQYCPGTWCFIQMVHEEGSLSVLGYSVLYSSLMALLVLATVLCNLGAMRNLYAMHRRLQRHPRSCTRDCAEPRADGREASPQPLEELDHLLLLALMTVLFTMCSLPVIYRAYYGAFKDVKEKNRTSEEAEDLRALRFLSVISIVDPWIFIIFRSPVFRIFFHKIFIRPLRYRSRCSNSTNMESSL
Protocol: (§1) The above compounds were tested for PG antagonist activity as follows using human recombinant prostanoid receptor (DP1, EP1-4, FP, IP and TP) stable cell lines: In order to measure the response of Gs and Gi coupled prostanoid receptors as a Ca^2+ signal, chimeric G protein cDNAs were used. Stable cell lines over-expressing human prostanoid DP1, EP1-4, FP, IP, and TP receptors were established as follows:
(§2) Briefly, human prostanoid DP1, EP2, and EP4 receptor cDNAs were co-transfected with chimeric Gqs cDNA containing a haemagglutanin (HA) epitope; human prostanoid EP3 receptors were co-transfected with chimeric Gqi-HA; human EP1, FP, IP, and TP receptor cDNAs were expressed with no exogenous G-proteins. Gqs and Gqi chimeric cDNAs (Molecular Devices, Sunnyvale, Calif., U.S.A.), as well as cDNAs of prostanoid receptors, were cloned into a pCEP4 vector with a hygromycin B selection marker. Transfection into HEK-293 EBNA (Epstein-Barr virus nuclear antigen) cells was achieved by the FuGENE 6 transfection Reagent (Roche Applied Science, Indianapolis, Ind., USA). Stable transfectants were selected according to hygromycin resistance. Because Gqs and Gqi contained an HA epitope, G-protein expression was detected by Western blotting analysis using anti-mouse HA monoclonal antibody and horseradish peroxidase (HRP)-conjugated secondary antibody, while functional expression of prostanoid receptors was detected by FLIPR screening (Matias et al., 2004). These stable cell lines were validated using previously published antagonists at 10 μM against serial dilutions of standard agonists by FLIPR functional assays for Ca^2+ Signaling (as described below).
(§3) Ca^2+ signaling studies were performed using a FLIPR TETRA system (Molecular Devices, Sunnyvale, Calif., USA) in the 384-format. This is a high-throughput instrument for cell-based assays to monitor Ca^2+ signaling associated with GPCRs and ion channels. Cells were seeded at a density of 5×10^4 cells/well in BioCoat poly-D-lysine coated, black wall, clear bottom 384-well plates (BD Biosciences, Franklin lakes, NJ, USA) and allowed to attach overnight in an incubator at 37° C. The cells were then washed twice with HBSS-HEPES buffer (Hanks' balanced salt solution without bicarbonate and phenol red, 20 mM HEPES, pH 7.4) using an ELx405 Select CW Microplate Washer (BioTek, Winooski, Vt., USA). After 60 min of dye-loading in the dark using the Ca^2+-sensitive dye Fluo-4AM (Invitrogen, Carlsbad, Calif., USA), at a final concentration of 2×10^−6M, the plates were washed 4 times with HBSS-HEPES buffer to remove excess dye and leaving 50 μl of buffer in each well. The plates were then placed in the FLIPR TETRA instrument and allowed to equilibrate at 37° C. Compounds were added in a 25 μl volume to each well to give final concentrations of 0.1 μM, 0.3 μM, 1 μM, 3 μM, 10 μM, and 30 μM; or 0.067 μM, 0.1 μM, 0.2 μM, 0.3 μM, 0.67 μM, and 1 μM for cells over-expressing TP receptors. After 4.5 minutes, a 7-point serial dilution of the standard agonist for the corresponding receptor, in a 25 μl volume was injected at the final concentrations from 10^−11M to 10^−5M in 10-fold serial dilution increments for cells expressing human recombinant DP1, EP1, EP2, EP3, EP4, FP, and IP receptors. The dose range for the standard agonist for human recombinant TP receptors was from 10^−12M to 10^−6M. HBSS-HEPES buffer was used as the negative control for the standard agonists. Cells were excited with LED (light emitting diode) excitation at 470-495 nm and emission was measured through an emission filter at 515-575 nm. Assay plates were read for 3.5 minutes using the FLIPR^TETRA. The peak increase in fluorescence intensity was recorded for each well. On each plate, negative controls, dose response of positive controls, and co-treatments of antagonist-agonist for each dose were in triplicates. Standard agonists were as follows: DP=BW 245C, EP1-EP4=PGE2, FP=17-phenyl-PGF2α, IP=Cicaprost, and TP=U-46619. […]

[2] = target: T2, human prostanoid EP2 receptor (Homo sapiens, UniProt P43116); experiment: FLIPR Ca2+ signaling PG antagonist assay, EP2 stable cell line; settings: HEK-293 EBNA cells, human recombinant EP2 with chimeric Gqs; standard agonist PGE2
T2 construct: expressed in transfected cells
Protocol: as §1, §2, §3

[3] = target: T3, human prostanoid IP receptor (Homo sapiens, UniProt P43119); experiment: FLIPR Ca2+ signaling PG antagonist assay, IP stable cell line; settings: HEK-293 EBNA cells, human recombinant IP, no exogenous G-protein; standard agonist Cicaprost
T3 construct: expressed in transfected cells
Protocol: as §1, §2, §3

[4] = target: T4, human prostanoid EP3 receptor (Homo sapiens, UniProt P43115); experiment: FLIPR Ca2+ signaling PG antagonist assay, EP3 stable cell line; settings: HEK-293 EBNA cells, human recombinant EP3 with chimeric Gqi; standard agonist PGE2
T4 construct: expressed in transfected cells
T4 sequence (P43115 1-390): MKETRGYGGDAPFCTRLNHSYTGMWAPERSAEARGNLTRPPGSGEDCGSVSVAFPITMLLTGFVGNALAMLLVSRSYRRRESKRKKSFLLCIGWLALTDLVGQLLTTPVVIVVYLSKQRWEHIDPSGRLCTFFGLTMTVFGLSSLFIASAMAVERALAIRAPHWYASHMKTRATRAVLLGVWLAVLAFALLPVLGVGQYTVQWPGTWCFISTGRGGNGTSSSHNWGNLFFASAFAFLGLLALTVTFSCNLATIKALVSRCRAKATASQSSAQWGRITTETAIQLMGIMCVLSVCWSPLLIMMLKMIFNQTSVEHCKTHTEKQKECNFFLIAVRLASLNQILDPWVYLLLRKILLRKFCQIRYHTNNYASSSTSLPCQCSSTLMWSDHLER
Protocol: as §1, §2, §3

[5] = target: T5, human prostanoid FP receptor (Homo sapiens, UniProt P43088); experiment: FLIPR Ca2+ signaling PG antagonist assay, FP stable cell line; settings: HEK-293 EBNA cells, human recombinant FP, no exogenous G-protein; standard agonist 17-phenyl-PGF2α
T5 construct: expressed in transfected cells
Protocol: as §1, §2, §3

T5 sequence (P43088 whole entry): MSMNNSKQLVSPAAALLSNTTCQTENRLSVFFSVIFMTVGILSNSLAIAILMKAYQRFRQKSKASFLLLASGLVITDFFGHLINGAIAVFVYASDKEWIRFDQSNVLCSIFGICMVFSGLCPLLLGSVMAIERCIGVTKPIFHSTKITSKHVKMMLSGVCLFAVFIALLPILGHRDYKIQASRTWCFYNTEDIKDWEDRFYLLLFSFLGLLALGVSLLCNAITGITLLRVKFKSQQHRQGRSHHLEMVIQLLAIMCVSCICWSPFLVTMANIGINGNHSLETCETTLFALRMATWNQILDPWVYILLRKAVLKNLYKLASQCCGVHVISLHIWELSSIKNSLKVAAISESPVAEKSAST
T3 sequence (P43119 whole entry): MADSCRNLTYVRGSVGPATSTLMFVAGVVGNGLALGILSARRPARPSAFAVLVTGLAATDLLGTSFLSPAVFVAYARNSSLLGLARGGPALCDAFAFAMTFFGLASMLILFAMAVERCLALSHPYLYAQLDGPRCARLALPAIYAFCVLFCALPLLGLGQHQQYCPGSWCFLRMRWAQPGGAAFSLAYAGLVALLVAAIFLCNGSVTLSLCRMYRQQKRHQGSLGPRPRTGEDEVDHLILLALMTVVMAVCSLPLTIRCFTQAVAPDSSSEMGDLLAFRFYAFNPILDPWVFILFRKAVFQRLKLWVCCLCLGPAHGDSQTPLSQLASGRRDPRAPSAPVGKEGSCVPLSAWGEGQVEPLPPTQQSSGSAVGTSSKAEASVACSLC
T2 sequence (P43116 whole entry): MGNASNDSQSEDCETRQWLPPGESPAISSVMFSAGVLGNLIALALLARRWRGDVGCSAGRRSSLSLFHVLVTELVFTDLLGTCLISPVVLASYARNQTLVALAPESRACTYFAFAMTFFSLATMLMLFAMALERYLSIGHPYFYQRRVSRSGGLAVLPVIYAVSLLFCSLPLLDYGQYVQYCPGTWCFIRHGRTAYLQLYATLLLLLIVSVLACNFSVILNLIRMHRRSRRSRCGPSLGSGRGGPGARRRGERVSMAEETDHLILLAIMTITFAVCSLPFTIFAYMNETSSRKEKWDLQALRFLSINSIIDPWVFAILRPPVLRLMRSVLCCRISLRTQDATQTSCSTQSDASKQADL

SMILES	Kb [1]	Kb [2]	Kb [3]	Kb [4]	Kb [5]	FP (Kb, PG antagonist activity) [5]
O=C(O)c1ccc2c(cnn2Cc2cc(Br)ccc2OCc2ccccc2)c1 [Example 12, 1-(2-Benzyloxy-5-Bromo-Benzyl)-1H-Indazole-5-Carboxylic Acid]	1.6 µM	7.9 µM	5 µM	≥ 10 µM	0.12 µM	–
CCC(CC)COc1ccc(Cl)cc1Cn1ccc2cc(C(=O)O)ccc21 [Example 1, 1-[5-Chloro-2-(2-Ethyl-Butoxy)-Benzyl]-1H-Indole-5-Carboxylic Acid]	2.1 µM	8.7 µM	2.2 µM	5.2 µM	0.56 µM	–
CCC(CC)COc1ccc(Br)cc1Cn1ccc2ccc(C(=O)O)cc21 [Example 70, 1-[5-Bromo-2-(2-Ethyl-Butoxy)-Benzyl]-1H-Indole-6-Carboxylic Acid]	2.2 µM	≥ 10 µM	≥ 10 µM	≥ 10 µM	≥ 10 µM	–
O=C(O)c1ccc2cn(Cc3cc(Br)ccc3OCC3CCCC3)nc2c1 [Example 45, 2-(5-Bromo-2-Cyclopentylmethoxy-Benzyl)-2H-Indazole-6-Carboxylic Acid]	2.8 µM	≥ 10 µM	7 µM	≥ 10 µM	1.4 µM	–
CC(C)COc1ccc(Br)cc1Cn1ccc2nc(C(=O)O)ccc21 [Example 73, 1-(5-Bromo-2-Isobutoxy-Benzyl)-1H-Pyrrolo[3,2-B]Pyridine-5-Carboxylic Acid]	≥ 10 µM	≥ 10 µM	9 µM	≥ 10 µM	0.43 µM	–
CCc1nn(Cc2cc(Br)ccc2OCC(CC)CC)c2ccc(C(=O)O)cc12 [Example 65, 1-[5-Bromo-2-(2-Ethyl-Butoxy)-Benzyl]-3-Ethyl-1H-Indazole-5-Carboxylic Acid]	1.5 µM	6.5 µM	0.88 µM	4.7 µM	–	PAg
CCC(CC)COc1ccc(Cl)cc1Cn1cc2c(C(=O)O)cccc2n1 [Example 39, 2-[5-Chloro-2-(2-Ethyl-Butoxy)-Benzyl]-2H-Indazole-4-Carboxylic Acid]	1 µM	≥ 10 µM	4.9 µM	5.5 µM	≥ 10 µM	–
O=C(O)c1ccc2c(cnn2Cc2cc(C(F)(F)F)ccc2OCC2CCCC2)c1 [Example 33, 1-(2-Cyclopentylmethoxy-5-Trifluoromethyl-Benzyl)-1H-Indazole-5-Carboxylic Acid]	0.35 µM	2.6 µM	0.4 µM	1.4 µM	0.07 µM	–
CC(C)COc1ccc(O)cc1Cn1ncc2cc(C(=O)O)ccc21 [Example 54]	9.9 µM	≥ 10 µM	≥ 10 µM	≥ 10 µM	1.1 µM	–
CC(C)COc1ccc(OC(F)(F)F)cc1Cn1ncc2cc(C(=O)O)ccc21 [Example 20, 1-(2-Isobutoxy-5-Trifluoromethoxy-Benzyl)-1H-Indazole-5-Carboxylic Acid]	0.5 µM	≥ 10 µM	2.7 µM	≥ 10 µM	0.013 µM	–
O=C(O)c1cccc2c1cnn2Cc1cc(Cl)ccc1OCC1CC1 [Example 34, 1-(5-Chloro-2-Cyclopropylmethoxy-Benzyl)-1H-Indazole-4-Carboxylic Acid]	5.4 µM	≥ 10 µM	≥ 10 µM	≥ 10 µM	3.2 µM	–
CC(C)COc1ccc(S(C)(=O)=O)cc1Cn1ncc2cc(C(=O)O)ccc21 [Example 48, 1-(2-Isobutoxy-5-Methanesulfonyl-Benzyl)-1H-Indazole-5-Carboxylic Acid]	≥ 10 µM	≥ 10 µM	≥ 10 µM	≥ 10 µM	≥ 10 µM	–
O=C(O)c1ccc2c(cnn2Cc2cc(Cl)ccc2OCc2ccc(Cl)cc2)c1 [Example 9, 1-[5-Chloro-2-(4-Chloro-Benzyloxy)-Benzyl]-1H-Indazole-5-Carboxylic Acid]	1.2 µM	3.2 µM	1.35 µM	4.9 µM	0.02 µM	–
CCc1nn(Cc2cc(Br)ccc2OCC(C)C)c2ccc(C(=O)O)cc12 [Example 64, 1-(5-Bromo-2-Isobutoxy-Benzyl)-3-Ethyl-1H-Indazole-5-Carboxylic Acid]	0.26 µM	3.1 µM	0.7 µM	2.9 µM	0.19 µM	–
Cc1nn(Cc2cc(OC(F)(F)F)ccc2OCC(C)C)c2ccc(C(=O)O)cc12 [Example 22, 1-(2-Isobutoxy-5-Trifluoromethoxy-Benzyl)-3-Methyl-1H-Indazole-5-Carboxylic Acid]	1.7 µM	≥ 10 µM	6 µM	≥ 10 µM	0.14 µM	–
CCC(CC)COc1ccc(Br)cc1Cn1nc(C)c2cc(C(=O)O)ccc21 [Example 27, 1-[5-Bromo-2-(2-Ethyl-Butoxy)-Benzyl]-3-Methyl-1H-Indazole-5-Carboxylic Acid]	1.6 µM	3.64 µM	0.44 µM	2.6 µM	0.2 µM	–
CCC(CC)COc1ccc(Cl)cc1Cn1ncc2cc(C(N)=O)ncc21 [Example 62, 1-[5-Chloro-2-(2-Ethyl-Butoxy)-Benzyl]-1H-Pyrazolo[3,4-C]Pyridine-5-Carboxylic Acid Amide]	5.8 µM	≥ 10 µM	≥ 10 µM	≥ 10 µM	≥ 10 µM	–
CC(C)COc1ccc(Br)cc1Cn1ccc2cc(C(=O)O)ccc21 [Example 67, 1-(5-Bromo-2-Isobutoxy-Benzyl)-1H-Indole-5-Carboxylic Acid]	≥ 10 µM	≥ 10 µM	≥ 10 µM	≥ 10 µM	0.1 µM	–
